Read-outs that look alike come from different tables or passages of the source.
Key:
[1] = biological target: T1, Caspase 3 (Homo sapiens, UniProt P42574); experiment: Caspase 3 activity assay; format: biochemical; conditions: 500 nM Ac-DEVD-AMC, 3.2 nM enzyme, 30 min pre-incubation at 25° C., 60 min at 37° C.; sigmoidal fit; AF: Autofluorescent; read-out: Casp3 (inhibition of cysteine protease activity)
T1 sequence (P42574 29-175 limits assumed): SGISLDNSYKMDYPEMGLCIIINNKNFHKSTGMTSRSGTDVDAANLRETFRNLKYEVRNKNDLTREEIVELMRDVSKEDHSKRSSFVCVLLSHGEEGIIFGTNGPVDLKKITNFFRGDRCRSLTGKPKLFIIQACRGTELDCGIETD
T1 sequence (P42574 176-277 limits assumed): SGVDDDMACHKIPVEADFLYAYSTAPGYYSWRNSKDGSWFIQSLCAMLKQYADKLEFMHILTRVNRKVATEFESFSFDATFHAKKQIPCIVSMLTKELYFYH
Experimental: Compounds stocks (100 mM) were stored at −20° C. in DMSO. […] Reactions were performed as duplicates in Black LJL 96 well plates (HE microplates; Molecular Devices; 20 μl final reaction volume). The substrate concentration for caspase 3 specificity assay was 500 nM (Ac-DEVD-AMC; Promega). […] The concentrations were determined in order to perform specificity assays under initial velocities at fixed substrate concentration. Compounds were pre-incubated with enzymes for 30 minutes at 25° C. Reactions were initiated by addition of substrate to the plates containing the enzymes (+/−compounds) diluted in assay buffer. Reactions were incubated for 60 minutes at 37° C. Reactions were stopped by adding acetic acid (100 mM final). Readings were performed on a Pherastar Fluorescent Reader (BMG). δ Emission 380 nm; δ Excitation=460 nm. Data (mean values+/− standard deviation) were analyzed as % of control (no compound) and plotted as percentage versus the Log of the compound concentration using GraphPad (Prism). Data were fitted to a sigmoidal model (variable slope).

[2] = biological target: T2, USP5 (Homo sapiens, UniProt P45974); experiment: USP5 activity assay; format: biochemical; conditions: 400 nM Ub-AMC, 300 pM enzyme, 30 min pre-incubation at 25° C., 60 min at 37° C.; sigmoidal fit; AF: Autofluorescent; read-out: USP 5 (inhibition of cysteine protease activity)
T2 sequence (P45974 1-858): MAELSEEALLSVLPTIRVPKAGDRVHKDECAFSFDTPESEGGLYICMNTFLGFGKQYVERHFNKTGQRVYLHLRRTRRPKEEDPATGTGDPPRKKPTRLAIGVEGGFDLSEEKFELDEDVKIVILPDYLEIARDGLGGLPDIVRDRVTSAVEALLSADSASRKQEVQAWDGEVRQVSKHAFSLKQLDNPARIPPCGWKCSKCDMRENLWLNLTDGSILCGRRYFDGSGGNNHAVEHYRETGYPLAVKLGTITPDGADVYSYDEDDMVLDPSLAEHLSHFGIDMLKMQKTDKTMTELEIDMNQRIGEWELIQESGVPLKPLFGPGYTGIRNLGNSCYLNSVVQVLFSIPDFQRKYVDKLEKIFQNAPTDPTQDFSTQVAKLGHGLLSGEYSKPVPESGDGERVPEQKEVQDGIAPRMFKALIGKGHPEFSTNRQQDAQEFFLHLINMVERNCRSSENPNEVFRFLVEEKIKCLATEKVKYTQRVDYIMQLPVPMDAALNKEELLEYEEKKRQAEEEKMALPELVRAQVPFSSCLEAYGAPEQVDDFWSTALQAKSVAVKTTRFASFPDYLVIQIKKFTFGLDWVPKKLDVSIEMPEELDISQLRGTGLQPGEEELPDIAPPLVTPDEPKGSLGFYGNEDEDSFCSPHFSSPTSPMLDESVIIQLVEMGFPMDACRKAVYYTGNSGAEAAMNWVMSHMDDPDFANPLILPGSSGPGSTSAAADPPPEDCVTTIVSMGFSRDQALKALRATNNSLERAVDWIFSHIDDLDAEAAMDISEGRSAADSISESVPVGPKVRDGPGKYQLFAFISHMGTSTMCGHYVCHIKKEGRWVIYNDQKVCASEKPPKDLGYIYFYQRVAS
Experimental: Bovine Serum Albumin 0.05 mg·ml^−1 pH7.6). Compounds stocks (100 mM) were stored at −20° C. in DMSO. […] Reactions were performed as duplicates in Black LJL 96 well plates (HE microplates; Molecular Devices; 20 μl final reaction volume). The substrate concentration for USP5 was 400 nM Ub-AMC (Boston Biochem). The concentrations of the enzyme (USP5) in specificity assays was 300 pM. The concentrations were determined in order to perform specificity assays under initial velocities at fixed substrate concentration. Compounds were pre-incubated with enzymes for 30 minutes at 25° C. Reactions were initiated by addition of substrate to the plates containing the enzymes (+/− compounds) diluted in assay buffer. Reactions were incubated for 60 minutes at 37° C. Reactions were stopped by adding acetic acid (100 mM final). Readings were performed on a Pherastar Fluorescent Reader (BMG). λ Emission 380 nm; λ Excitation=460 nm. Data (mean values +/− standard deviation) were analyzed as % of control (no compound) and plotted as percentage versus the Log of the compound concentration using GraphPad (Prism). Data were fitted to a sigmoidal model (variable slope).

[3] = system: HCT116 colon cancer cells; experiment: HCT116 cell viability and proliferation assay (MTS); format: cell-based; conditions: Homo sapiens, read-out: HCT116 D3 GI50
[4] = biological target: T3, USP7 (Homo sapiens, UniProt Q93009); experiment: USP7 activity assay; format: biochemical
T3 construct: His tag (from pFastBac-HT vector) (N); made in house; host or cells: insect cells (Sf9 or High Five), baculovirus
T3 sequence (Q93009 whole entry): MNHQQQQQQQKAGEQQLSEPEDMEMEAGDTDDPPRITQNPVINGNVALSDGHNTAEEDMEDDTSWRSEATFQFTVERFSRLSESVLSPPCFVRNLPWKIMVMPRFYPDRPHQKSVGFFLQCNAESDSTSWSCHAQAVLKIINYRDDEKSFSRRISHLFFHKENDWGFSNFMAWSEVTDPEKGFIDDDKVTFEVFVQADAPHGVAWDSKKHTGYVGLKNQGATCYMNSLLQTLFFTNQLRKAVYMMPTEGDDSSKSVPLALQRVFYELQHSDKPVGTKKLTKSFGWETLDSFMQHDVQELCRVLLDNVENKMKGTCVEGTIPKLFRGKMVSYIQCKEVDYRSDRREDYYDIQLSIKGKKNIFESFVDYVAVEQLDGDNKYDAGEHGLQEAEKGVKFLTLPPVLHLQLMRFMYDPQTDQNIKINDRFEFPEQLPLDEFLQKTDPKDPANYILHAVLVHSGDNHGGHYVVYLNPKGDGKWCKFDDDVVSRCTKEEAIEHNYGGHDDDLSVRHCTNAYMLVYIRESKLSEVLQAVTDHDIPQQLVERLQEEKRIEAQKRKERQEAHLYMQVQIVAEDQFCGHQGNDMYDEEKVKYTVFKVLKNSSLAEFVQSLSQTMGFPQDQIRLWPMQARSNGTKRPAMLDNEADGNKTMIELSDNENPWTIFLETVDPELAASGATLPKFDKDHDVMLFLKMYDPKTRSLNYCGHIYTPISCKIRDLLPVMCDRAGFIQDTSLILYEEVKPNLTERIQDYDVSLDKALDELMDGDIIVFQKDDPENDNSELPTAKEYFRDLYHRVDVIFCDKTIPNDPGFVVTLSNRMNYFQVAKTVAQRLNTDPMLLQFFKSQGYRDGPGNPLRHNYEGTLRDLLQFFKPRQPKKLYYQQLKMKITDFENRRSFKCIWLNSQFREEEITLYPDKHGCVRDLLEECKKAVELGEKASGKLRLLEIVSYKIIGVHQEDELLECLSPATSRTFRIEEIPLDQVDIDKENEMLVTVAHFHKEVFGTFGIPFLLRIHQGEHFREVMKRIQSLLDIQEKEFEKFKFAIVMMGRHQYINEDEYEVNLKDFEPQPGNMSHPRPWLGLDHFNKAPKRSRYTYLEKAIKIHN

[5] = HCT-116, HCT116 cells, 72 hours incubation, MTS, mean of 3 independent experiments
[6] = 400 nM Ub-AMC, 152 pM enzyme, 30 min pre-incubation at 25° C., 60 min at 37° C., sigmoidal fit, read-out: USP 7 (inhibition of cysteine protease activity)

Row | SMILES | IC50 [1] | IC50 [2] | GI50 [3, 5] | IC50 [4] | GI50 ([3]; HCT-116, 72 h) | IC50 [4, 6]
1 | CCO/C(O)=C(\C#N)c1nc2c(nc1C#N)C(=O)c1ccccc1-2 [Example 22, 3-(1-cyano-2-ethoxy-2-hydroxy-vinyl)-9-oxo-9H-indeno[1,2-b]pyrazine-2-carbonitrile] | > 100 µM | > 100 µM | > 10000 nM | – | – | –
2 | C=CCON=C1c2ccccc2-c2nc(C#N)c(C#N)nc21 (mixture of isomers) [Example 13b, 9-(Allyloxyimino)-9H-indeno[1,2-b]pyrazine-2,3-dicarbonitrile] | > 100 µM | > 100 µM | – | > 100 µM | 580 nM | –
3 | N#Cc1nc2c(nc1C#N)C1(OCCO1)c1ccccc1-2 [Example 10] | > 100 µM | > 100 µM | 3400 nM | – | – | –
4 | CON=C1c2ccccc2-c2nc(C#N)c(C#N)nc21 [Example 13a, 9-(methoxyimino)-9H-indeno[1,2-b]pyrazine-2,3-dicarbonitrile] | 52 µM | 19.5 µM | – | > 100 µM | 390 nM | –
5 | CC(=O)O/N=C1\c2ccccc2-c2nc(C(N)=O)c(C#N)nc21 (single isomer, unassigned) [Example 35, 2-cyano-9-acetoxyimino-9H-indeno[1,2-b]pyrazine-3-carboxylic acid amide] | 0.12 µM | 0.161 µM | – | 0.506 µM | 1350 nM | –
6 | Cc1cccc2c1Cc1nc(C#N)c(C#N)nc1-2 [Example 16c, 8-Methyl-9H-indeno[1,2-b]pyrazine-2,3-dicarbonitrile] | > 100 µM | > 100 µM | 1470 nM | – | – | > 100 µM
7 | N#Cc1nc2c(nc1C#N)-c1ccccc1C2=NOCc1ccccc1 (mixture of isomers) [Example 13C, 9-Benzyloxyimino-9H-indeno[1,2-b]pyrazine-2,3-dicarbonitrile] | > 100 µM | > 100 µM | 750 nM | – | – | > 100 µM
8 | N#Cc1nc2c(nc1N1CCC(F)(F)CC1)-c1ccccc1C2=O [Example 8, 3-(4,4-difluoro-piperidin-1-yl)-9-oxo-9H-indeno[1,2-b]-pyrazine-2-carbonitrile] | > 100 µM | > 100 µM | > 10000 nM | – | – | > 100 µM
9 | N#Cc1nc2c(nc1C#N)-c1ccc(O)cc1C2=O [Example 17j, 7-Hydroxy-9-oxo-9H-indeno[1,2-b]pyrazine-2,3-dicarbonitrile] | 47 µM | > 100 µM | > 10000 nM | – | – | 66 µM
10 | N#Cc1nc2c(nc1C#N)-c1ccccc1C2=NOCCOc1ccccc1 [Example 27a, 9-(2-Phenoxy-ethoxyimino)-9H-indeno[1,2-b]pyrazine-2,3-dicarbonitrile] | > 100 µM | > 100 µM | – | > 100 µM | 549 nM | –
11 | CCOC(=O)CNC(=O)CO/N=C1\c2ccccc2-c2nc(C(N)=O)c(C#N)nc21 [Example 40, [2-(3-carbamoyl-2-cyano-indeno[1,2-b]pyrazin-9-ylideneaminooxy)-acetylamino]-acetic acid ethyl ester] | 0.857 µM | 1.13 µM | 4600 nM | – | – | 2.8 µM
12 | N#Cc1nc2c(nc1C#N)-c1ccccc1C2=O [Example 1, 9-oxo-9H-indeno[1,2-b]pyrazine-2,3-dicarbonitrile] | 0.69 µM | 1.3 µM | 150 nM | – | – | 3.5 µM
13 | N#Cc1nc2c(nc1C#N)-c1ccccc1/C2=N/Oc1ccccc1 [Example 13e, 9-Phenoxyimino-9H-indeno[1,2-b]pyrazine-2,3-dicarbonitrile] | > 100 µM | 32 µM | 540 nM | – | – | > 100 µM
14 | CCOC(=O)CO/N=C1\c2ccccc2-c2nc(C(N)=O)c(C#N)nc21 [Example 37, (3-carbamoyl-2-cyano-indeno[1,2-b]pyrazin-9-ylideneaminooxy)-acetic acid ethyl ester] | 1.16 µM | 0.799 µM | 652 nM | – | – | 2.33 µM
15 | N#Cc1nc2c(nc1C#N)C(=O)c1ccccc1C2=O [Example 20, 5,10-dioxo-5,10-dihydro-benzo[g]quinoxaline-2,3-dicarbonitrile] | > 100 µM | > 100 µM | – | > 100 µM | 780 nM | –
16 | N#Cc1nc2c(nc1Cl)-c1ccccc1C2=O [Example 9, 3-chloro-9-oxo-9H-indeno[1,2-b]pyrazine-2-carbonitrile] | > 100 µM | > 100 µM | > 10000 nM | – | – | > 100 µM
17 | N#Cc1nc2c(nc1O)-c1ccc(Cl)cc1C2=O [Example 42, 7-chloro-3-hydroxy-9-oxo-9H-indeno[1,2-b]pyrazine-2-carbonitrile] | > 100 µM | > 100 µM | – | > 100 µM | > 10000 nM | –
18 | N#Cc1nc2c(nc1C#N)-c1cc(Cl)c(Cl)cc1C2=O [Example 31, 6,7-dichloro-9-oxo-9H-indeno[1,2-b]pyrazine-2,3-dicarbonitrile] | 0.158 µM | 0.329 µM | – | 0.591 µM | 753 nM | –
19 | COc1ccc2c(c1)C(=O)c1nc(C#N)c(C#N)nc1-2 [Example 17i, 7-Methoxy-9-oxo-9H-indeno[1,2-b]pyrazine-2,3-dicarbonitrile] | 2 µM | 23 µM | 560 nM | – | – | > 100 µM
20 | N#Cc1nc2c(nc1O)-c1ccccc1C2=O [Example 6, 3-hydroxy-9-oxo-9H-indeno[1,2-b]pyrazine-2-carbonitrile] | 9.3 µM | 9.1 µM | > 10000 nM | – | – | 21.8 µM
21 | N#Cc1nc2c(nc1C#N)-c1ccc(Cl)cc1C2=O [Example 17g, 7-Chloro-9-oxo-9H-indeno[1,2-b]pyrazine-2,3-dicarbonitrile] | 0.29 µM | 0.16 µM | 320 nM | – | – | 0.53 µM
22 | COc1ccc2c(c1)-c1nc(C#N)c(C#N)nc1C2=O [Example 17a, 6-Methoxy-9-oxo-9H-indeno[1,2-b]pyrazine-2,3-dicarbonitrile] | 10 µM | 29 µM | 610 nM | – | – | > 100 µM
23 | N#Cc1nc2c(nc1CC(N)=O)-c1ccccc1C2=O [Example 26, 2-(2-cyano-9-oxo-9H-indeno[1,2-b]pyrazin-3-yl)-acetamide] | – | 60 µM | – | > 100 µM | > 10000 nM | –
